Measured values taken from ChEMBL document CHEMBL6109101, “Synthesis and bioactivity of cyclic peptide GG-8-6 analogues as anti-hepatocellular carcinoma agents” (Eur J Med Chem, 2025).

Columns and labels:
HCCLM3 [1] = experiment: Cytotoxicity against human HCCLM3 cells assessed as inhibition of cell proliferation incubated for 48 hrs by MTT assay; assay type: functional, cell-based; conditions: HCCLM3, 48 h
Huh-7 [2] = experiment: Cytotoxicity against human Huh-7 cells assessed as inhibition of cell proliferation incubated for 48 hrs by MTT assay; assay type: functional, cell-based; conditions: Huh-7, 48 h
HepG2 [3] = experiment: Cytotoxicity against human HepG2 cells assessed as inhibition of cell proliferation incubated for 48 hrs by MTT assay; assay type: functional, cell-based; conditions: HepG2, 48 h
MHCC97H [4] = experiment: Cytotoxicity against human MHCC97H cells assessed as inhibition of cell proliferation incubated for 48 hrs by MTT assay; assay type: functional, cell-based
MHCC97H [5] = experiment: Antitumor activity against human MHCC97H cells xenografted in nude mouse assessed as tumor growth inhibition at 10 mg/kg, po administered daily for 3 weeks relative to control; assay type: functional; conditions: 504 h, read-out: TGI
HCCLM3 [6] = experiment: Antiproliferative activity against human HCCLM3 cells assessed as reduction in intracellular ATP level at 10 uM incubated for 48 hrs by luminometer analysis relative to control; assay type: functional; parameters: scale not given: the % may be the effect or the level left
MHCC97H [7] = experiment: Antitumor activity against human MHCC97H cells xenografted in nude mouse assessed as tumor weight at 5 mg/kg, po administered daily for 3 weeks (reference value: 1.667g); assay type: functional
MHCC97H [8] = experiment: Antitumor activity against human MHCC97H cells xenografted in nude mouse assessed as tumor growth inhibition at 5 mg/kg, po administered daily for 3 weeks relative to control; assay type: functional; conditions: 504 h, read-out: TGI
MHCC97H [9] = experiment: Antiproliferative activity against human MHCC97H cells assessed as reduction in intracellular ATP level at 10 uM incubated for 48 hrs by luminometer analysis relative to control; assay type: functional; parameters: scale not given: the % may be the effect or the level left
MHCC97H [10] = experiment: Antitumor activity against human MHCC97H cells xenografted in nude mouse assessed as tumor weight at 10 mg/kg, po administered daily for 3 weeks (reference value: 1.667g); assay type: functional
Huh-7 [11] = experiment: Antiproliferative activity against human Huh-7 cells assessed as reduction in intracellular ATP level at 10 uM incubated for 48 hrs by luminometer analysis relative to control; assay type: functional; parameters: scale not given: the % may be the effect or the level left
HepG2 [12] = experiment: Antiproliferative activity against human HepG2 cells assessed as reduction in intracellular ATP level at 10 uM incubated for 48 hrs by luminometer analysis relative to control; assay type: functional; parameters: scale not given: the % may be the effect or the level left

| Compound | IC50 (HCCLM3 [1]) | IC50 (Huh-7 [2]) | IC50 (HepG2 [3]) | IC50 (MHCC97H [4]) | inhibition in vivo at 10 mg/kg (MHCC97H [5]) | Activity (HCCLM3 [6]) | Activity (MHCC97H [7]) | inhibition in vivo at 5 mg/kg (MHCC97H [8]) | Activity (MHCC97H [9]) | Activity (MHCC97H [10]) | Activity (Huh-7 [11]) | Activity (HepG2 [12]) |
| --- | --- | --- | --- | --- | --- | --- | --- | --- | --- | --- | --- | --- |
| CC[C@@H](C)[C@H]1NC(=O)[C@@H]2CCCN2C(=O)[C@@H](CC(C)C)NC(=O)CNC(=O)[C@H](CC(C)C)NC(=O)[C@H](C(C)C)NC(=O)[C@H](CC(C)C)NC(=O)[C@H](CC(C)C)NC(=O)[C@H](CC(C)C)NC1=O | > 100 µM | > 100 µM | > 100 µM | > 100 µM | – | – | – | – | – | – | – | – |
| CC[C@@H](C)[C@H]1NC(=O)[C@@H]2CCCN2C(=O)[C@@H](CC(C)C)NC(=O)[C@@H](COC(C)(C)C)NC(=O)[C@H](CC(C)C)NC(=O)[C@H](C(C)C)NC(=O)[C@H](CC(C)C)NC(=O)[C@H](CC(C)C)NC(=O)[C@H](CC(C)C)NC1=O | > 100 µM | > 100 µM | > 100 µM | > 100 µM | – | – | – | – | – | – | – | – |
| CC(C)C[C@@H]1NC(=O)[C@H](CC(C)C)NC(=O)[C@@H](CCCCNC(=O)OC(C)(C)C)NC(=O)[C@@H]2CCCN2C(=O)[C@@H](CC(C)C)NC(=O)[C@H](Cc2ccccc2)NC(=O)[C@H](CC(C)C)NC(=O)[C@H](C(C)C)NC(=O)[C@H](CC(C)C)NC1=O | 5.23 µM | > 100 µM | > 100 µM | 3.64 µM | – | – | – | – | – | – | – | – |
| CC[C@@H](C)[C@H]1NC(=O)[C@@H]2CCCN2C(=O)[C@@H](CC(C)C)NC(=O)[C@H](C(C)C)NC(=O)[C@@H](CC(C)C)NC(=O)[C@H](C(C)C)NC(=O)[C@H](CC(C)C)NC(=O)[C@H](CC(C)C)NC(=O)[C@H](CC(C)C)NC1=O | 9.94 µM | 12.2 µM | 12.2 µM | 8.18 µM | – | – | – | – | – | – | – | – |
| CC[C@@H](C)[C@H]1NC(=O)[C@@H]2CCCN2C(=O)[C@@H](CC(C)C)NC(=O)[C@@H](Cc2ccc(OC(C)(C)C)cc2)NC(=O)[C@H](CC(C)C)NC(=O)[C@H](C(C)C)NC(=O)[C@H](CC(C)C)NC(=O)[C@H](CC(C)C)NC(=O)[C@H](CC(C)C)NC1=O | > 100 µM | > 100 µM | > 100 µM | > 100 µM | – | – | – | – | – | – | – | – |
| CC[C@H](C)[C@@H]1NC(=O)[C@@H]2CCCN2C(=O)[C@H](CC(C)C)NC(=O)[C@H](COC(C)(C)C)NC(=O)[C@H](CC(C)C)NC(=O)[C@H](C(C)C)NC(=O)[C@H](CC(C)C)NC(=O)[C@H](CC(C)C)NC(=O)[C@H](CC(C)C)NC1=O | – | – | – | – | 84.3% | 99.9% | 0.052 g | 68.9% | 87.8% | 0.262 g | 81.8% | 41.1% |
| CC[C@@H](C)[C@H]1NC(=O)[C@@H]2CCCN2C(=O)[C@@H](CC(C)C)NC(=O)[C@H](COC(C)(C)C)NC(=O)[C@@H](CCCCNC(=O)OC(C)(C)C)NC(=O)[C@H](C(C)C)NC(=O)[C@H](CC(C)C)NC(=O)[C@H](CC(C)C)NC(=O)[C@H](CC(C)C)NC1=O | 2.99 µM | > 100 µM | > 100 µM | 3.04 µM | – | – | – | – | – | – | – | – |
| CC[C@@H](C)[C@H]1NC(=O)[C@@H]2CCCN2C(=O)[C@@H](CC(C)C)NC(=O)[C@H]([C@H](C)OC(C)(C)C)NC(=O)[C@@H](CC(C)C)NC(=O)[C@H](C(C)C)NC(=O)[C@H](CC(C)C)NC(=O)[C@H](CC(C)C)NC(=O)[C@H](CC(C)C)NC1=O | 4.19 µM | 3.41 µM | 3.41 µM | 6.05 µM | – | – | – | – | – | – | – | – |
